Values of other authors, collected in patent publication US20250295648A1 (priority 2024, published 2025).

Test system: Parkinson's patients with troublesome L-DOPA-induced dyskinesia
Conditions: cited from earlier work

Fc1ccc(-c2cncc(CNC[C@H]3CCc4ccccc4O3)c2)cc1 [sarizotan]
effect on L-DOPA efficacy (phase 2b study, Goetz 2007): two of the three tested doses significantly reduced L-DOPA efficacy | reduction of LID (third (lowest) dose, two phase 3 trials): ineffective in reducing LID
